Results: US20190029960A1, “Therapeutic Nanoparticles Having EGFR Ligands and Methods of Making and Using Same” (Pfizer Inc., priority 2016, published 2019)
*1 amine or outer side, *2 acyl side, *3 side chain or, on linkers, in order; H or OH if unused. Where a SMILES comes first, the peptide text is derived from it. Bridges are numbered along the chain shown (N, C = ends). Side-chain parts run from the residue outwards. [ ]: non-standard residue; d: D form. The star is where a group is joined. Trp(5-OMe) = COc1ccc2[nH]cc(C[C@H](N)C(=O)O)c2c1; DBCO = C1#Cc2ccccc2N(*)Cc2ccccc21; Igl = N[C@H](C(=O)O)C1Cc2ccccc2C1; PEG5 = NCCOCCOCCOCCOCCOCCC(=O)O; Suc = O=C(CCC(=O)[*:2])[*:1]; Pra = C#CC[C@H](N)C(=O)O; Dap = NC[C@H](N)C(=O)O; Acm = CC(=O)NC*

molecular target: T1, Fc tagged recombinant human EGFR (rhEGFR-Fc) (Homo sapiens, UniProt P00533); assay type: binding; conditions: not given
T1 construct: purchased R&D Systems 344-ER-050
Method: Surface plasmon resonance (SPR) binding studies were carried out on a Biacore T200 instrument (GE Healthcare). Approximately 10,000 RU of anti-Fc antibody (GE Healthcare, Cat #BR100839) was immobilized via amine coupling on each of flow cells 1 and 2 of a CM5 dextran-coated gold sensor chip (GE Healthcare, Cat #BR100530). […] The contact time and resulting amount of rhEGFR-Fc capture was varied based on the nature of the analyte, namely whether it was a peptide or nanoparticle.
Peptide binding assays were carried out in 10 mM PBS buffer supplemented with 0.05% surfactant P20 and 5% DMSO by volume, at 25° C. Peptides were injected over the rhEGFR-Fc surface for 60 s, followed by dissociation (buffer injection) for 60 s and regeneration with a 10 s pulse of 3M MgCl2. A fresh rhEGFR-Fc surface was generated for each concentration of each peptide tested. Peptide binding data was analyzed by fitting to a 1:1 Langmuir kinetic model to obtain the on-rate (ka), off-rate (kd) and/or equilibrium binding constant (KD) of the interaction.

Molecule | binding of free peptide to EGFR by SPR, in words
CC(=O)N[C@@H](CC(=O)O)C(=O)N[C@@H](C)C(=O)N[C@H]1CSSC[C@@H](C(=O)N[C@@H](CC(C)C)C(=O)N[C@@H](CCC(N)=O)C(=O)NCC(=O)NCC(=O)N[C@@H](CCCCNC(=O)CCOCCOCCOCCOCCOCCNC(=O)CCC(=O)N2Cc3ccccc3C#Cc3ccccc32)C(N)=O)NC(=O)[C@H](CCC(=O)O)NC(=O)[C@H](CCCNC(=N)N)NC(=O)CNC(=O)[C@H](Cc2c[nH]c3ccccc23)NC(=O)[C@H](C(C)C)NC(=O)[C@H](CCC(=O)O)NC(=O)[C@H](Cc2c[nH]c3ccccc23)NC(=O)[C@H]([C@@H](C)O)NC1=O [Peptide P2-2] | improved affinity relative to the parent peptide
CC(=O)N[C@@H](CC(=O)O)C(=O)N1CCC[C@H]1C(=O)N[C@@H]1C(=O)N[C@@H]([C@@H](C)O)C(=O)N[C@@H](Cc2c[nH]c3ccccc23)C(=O)N[C@@H](CCC(=O)O)C(=O)N[C@@H](C(C)C)C(=O)N[C@@H](Cc2c[nH]c3ccccc23)C(=O)NCC(=O)N[C@@H](CCCNC(=N)N)C(=O)N[C@@H](CCC(=O)O)C(=O)N[C@H](C(=O)N[C@@H](CC(C)C)C(=O)N[C@@H](CCC(N)=O)C(=O)NCC(=O)NCC(=O)N[C@@H](CCCCNC(=O)CCOCCOCCOCCOCCOCCNC(=O)CCC(=O)N2Cc3ccccc3C#Cc3ccccc32)C(N)=O)C(C)(C)SSC1(C)C [Peptide P2-55] | improved affinity relative to the parent peptide
COc1ccc2[nH]cc(C[C@@H]3NC(=O)[C@H](C(C)C)NC(=O)[C@H](CCC(=O)O)NC(=O)[C@H](C4Cc5ccccc5C4)NC(=O)[C@H]([C@@H](C)O)NC(=O)[C@@H](NC(=O)[C@@H]4CCCN4C(=O)[C@H](CC(=O)O)NC(C)=O)CSSC[C@@H](C(=O)N[C@@H](CC(C)C)C(=O)N[C@@H](CCC(N)=O)C(=O)NCC(=O)NCC(=O)N[C@@H](CCCCNC(=O)CCOCCOCCOCCOCCOCCNC(=O)CCC(=O)N4Cc5ccccc5C#Cc5ccccc54)C(N)=O)NC(=O)[C@H](CCC(=O)O)NC(=O)[C@H](CCCNC(=N)N)NC(=O)CNC3=O)c2c1 [Peptide P2-102] (Ac-DPCT[Igl]EV[Trp(5-OMe)]GRECLQGGK([PEG5-Suc-DBCO])-NH2; disulfide 3-12) | improved affinity relative to the parent peptide

same assay, conditions: Table 6, TGF fragments

Molecule | KD
C#CC[C@H](NC(=O)CN)C(=O)NCC(=O)NCC(=O)N[C@@H](C)C(=O)N[C@@H](CC(=O)O)C(=O)N[C@@H](CC(C)C)C(=O)N[C@@H](CC(C)C)C(=O)N[C@@H](C)C(=O)N[C@H](C(=O)N[C@H](C(=O)N[C@@H](C)C(=O)N[C@@H](C)C(N)=O)C(C)C)C(C)C [TGFf-4] (H-G[Pra]GGADLLAVVAA-NH2) | No binding
C#CC[C@H](NC(=O)CN)C(=O)NCC(=O)NCC(=O)N[C@@H](C)C(=O)N[C@@H](CCCNC(=N)N)C(=O)N[C@@H](CS)C(=O)N[C@@H](CCC(=O)O)C(=O)N[C@@H](Cc1c[nH]cn1)C(=O)N[C@@H](C)C(=O)N[C@@H](CC(=O)O)C(=O)N[C@@H](C)C(=O)N[C@@H](CC(=O)O)C(=O)N[C@@H](CC(C)C)C(N)=O [TGFf-5] (H-G[Pra]GGARCEHADADL-NH2) | No binding
C#CC[C@H](NC(=O)CN)C(=O)NCC(=O)NCC(=O)N[C@@H](CO)C(=O)NCC(=O)N[C@@H](Cc1ccc(O)cc1)C(=O)N[C@H](C(=O)NCC(=O)N[C@@H](C)C(=O)N[C@@H](CCCNC(=N)N)C(=O)N[C@@H](CS)C(=O)N[C@@H](CCC(=O)O)C(=O)N[C@@H](Cc1c[nH]cn1)C(N)=O)C(C)C [TGFf-6] (H-G[Pra]GGSGYVGARCEH-NH2) | No binding
C#CC[C@H](NC(=O)CN)C(=O)NCC(=O)NCC(=O)N[C@@H](C)C(=O)N[C@@H](CSCNC(C)=O)C(=O)N[C@H](C(=O)N[C@@H](CS)C(=O)N[C@@H](Cc1c[nH]cn1)C(=O)N[C@@H](CO)C(=O)NCC(=O)N[C@@H](Cc1ccc(O)cc1)C(=O)N[C@H](C(=O)NCC(N)=O)C(C)C)C(C)C [TGFf-7] (H-G[Pra]GGAC(Acm)VCHSGYVG-NH2) | No binding
C#CC[C@H](NC(=O)CN)C(=O)NCC(=O)NCC(=O)N[C@@H](CCC(N)=O)C(=O)N[C@@H](CCC(=O)O)C(=O)N[C@@H](CC(=O)O)C(=O)N[C@@H](CCCCN)C(=O)N1CCC[C@H]1C(=O)N[C@@H](C)C(=O)N[C@@H](CSCNC(C)=O)C(=O)N[C@H](C(=O)N[C@@H](CS)C(=O)N[C@@H](Cc1c[nH]cn1)C(N)=O)C(C)C [TGFf-8, H2N-G-Par-GG-QEDKPAC(Acm)VCH-CONH2] (H-G[Pra]GGQEDKPAC(Acm)VCH-NH2) | No binding
C#CC[C@H](NC(=O)CN)C(=O)NCC(=O)NCC(=O)N[C@@H](CS)C(=O)N[C@@H](CCCNC(=N)N)C(=O)N[C@@H](Cc1ccccc1)C(=O)N[C@@H](CC(C)C)C(=O)N[C@H](C(=O)N[C@@H](CCC(N)=O)C(=O)N[C@@H](CCC(=O)O)C(=O)N[C@@H](CC(=O)O)C(=O)N[C@@H](CCCCN)C(=O)N1CCC[C@H]1C(N)=O)C(C)C [TGFf-9] (H-G[Pra]GGCRFLVQEDKP-NH2) | No binding
C#CC[C@H](NC(=O)CN)C(=O)NCC(=O)NCC(=O)N[C@@H](CSCNC(C)=O)C(=O)N[C@@H](Cc1ccccc1)C(=O)N[C@@H](Cc1c[nH]cn1)C(=O)NCC(=O)N[C@H](C(=O)N[C@@H](CS)C(=O)N[C@@H](CCCNC(=N)N)C(=O)N[C@@H](Cc1ccccc1)C(=O)N[C@H](C(N)=O)C(C)C)[C@@H](C)O [TGFf-10] (H-G[Pra]GGC(Acm)FHGTCRFV-NH2) | No binding
C#CC[C@H](NC(=O)CN)C(=O)NCC(=O)NCC(=O)N[C@@H](CO)C(=O)N[C@@H](Cc1c[nH]cn1)C(=O)N[C@H](C(=O)N[C@@H](CCC(N)=O)C(=O)N[C@@H](Cc1ccccc1)C(=O)N[C@@H](CS)C(=O)N[C@@H](Cc1ccccc1)C(=O)N[C@@H](Cc1c[nH]cn1)C(=O)NCC(=O)N[C@H](C(N)=O)[C@@H](C)O)[C@@H](C)O [TGFf-11] (H-G[Pra]GGSHTQFCFHGT-NH2) | No binding
C#CC[C@H](NC(=O)CN)C(=O)NCC(=O)NCC(=O)N[C@@H](CC(N)=O)C(=O)N[C@@H](CC(=O)O)C(=O)N[C@@H](CS)C(=O)N1CCC[C@H]1C(=O)N[C@@H](CC(=O)O)C(=O)N[C@@H](CO)C(=O)N[C@@H](Cc1c[nH]cn1)C(=O)N[C@H](C(=O)N[C@@H](CCC(N)=O)C(=O)N[C@@H](Cc1ccccc1)C(N)=O)[C@@H](C)O [TGFf-12] (H-G[Pra]GGNDCPDSHTQF-NH2) | No binding
C#CC[C@H](NC(=O)CN)C(=O)NCC(=O)NCC(=O)N[C@@H](Cc1c[nH]c2ccccc12)C(=O)N[C@@H](CO)C(=O)N[C@@H](Cc1c[nH]cn1)C(=O)N[C@@H](Cc1ccccc1)C(=O)N[C@@H](CC(N)=O)C(=O)N[C@@H](CC(=O)O)C(=O)N[C@@H](CS)C(=O)N1CCC[C@H]1C(=O)N[C@@H](CC(=O)O)C(N)=O [TGFf-13] (H-G[Pra]GGWSHFNDCPD-NH2) | No binding
C#CC[C@H](NC(=O)CN)C(=O)NCC(=O)NCC(=O)N[C@@H](C)C(=O)N[C@@H](CCCNC(=N)N)C(=O)N[C@@H](CS)C(=O)N[C@@H](Cc1c[nH]cn1)C(=O)N[C@@H](CCC(=O)O)C(=O)N[C@@H](Cc1c[nH]cn1)C(=O)N[C@@H](C)C(=O)N[C@@H](CC(=O)O)C(=O)N[C@@H](CC(C)C)C(=O)N[C@@H](CC(C)C)C(=O)N[C@@H](C)C(N)=O [TGFf-14] (H-G[Pra]GGARCHEHADLLA-NH2) | No binding
H2N-G-Par-GG-CPDSHTQFC(Acm)FHGTC-CONH2 (H-G[Pra]GGCPDSHTQFC(Acm)FHGTC-NH2; disulfide 5-18; SMILES C#CC[C@H](NC(=O)CN)C(=O)NCC(=O)NCC(=O)N[C@H]1CSSC[C@@H](C(N)=O)NC(=O)[C@H]([C@@H](C)O)NC(=O)CNC(=O)[C@H](Cc2c[nH]cn2)NC(=O)[C@H](Cc2ccccc2)NC(=O)[C@H](CSCNC(C)=O)NC(=O)[C@H](Cc2ccccc2)NC(=O)[C@H](CCC(N)=O)NC(=O)[C@H]([C@@H](C)O)NC(=O)[C@H](Cc2c[nH]cn2)NC(=O)[C@H](CO)NC(=O)[C@H](CC(=O)O)NC(=O)[C@@H]2CCCN2C1=O) [TGFf-3] | Not soluble

same assay, conditions: Table 13, point mutations

KD/P2 KD | Molecule
NS at 100 μM | H2N-DPCTWEVFGRECLQ-GG-Par-G-CONH2 [Peptide P2-40]
NS at 100 μM | H2N-DPCTWEVWARECLQ-GG-Par-G-CONH2 [Peptide P2-41]

Molecule | KD/P2 KD
C#CC[C@H](NC(=O)CNC(=O)CNC(=O)[C@H](CCC(N)=O)NC(=O)[C@H](CC(C)C)NC(=O)[C@@H]1CSSC[C@H](NC(=O)[C@@H]2CCCN2C(=O)[C@@H](N)CC(=O)O)C(=O)N[C@@H]([C@@H](C)O)C(=O)N[C@@H](Cc2ccccc2)C(=O)N[C@@H](CCC(=O)O)C(=O)N[C@@H](C(C)C)C(=O)N[C@@H](Cc2c[nH]c3ccccc23)C(=O)NCC(=O)N[C@@H](CCCNC(=N)N)C(=O)N[C@@H](CCC(=O)O)C(=O)N1)C(=O)NCC(N)=O [Peptide P2-29] (H-DPCTFEVWGRECLQGG[Pra]G-NH2; disulfide 3-12) | 9.24

same assay, conditions: Table 14; relative affinity compared to KD of parent P2 (FIG. 16)

Result | Molecule
No binding | H2N-GDP-Dap-TWEVWGREDLQ-GG-Par-G-CONH2 (H-GDP[Dap]TWEVWGREDLQGG[Pra]G-NH2; lactam 4-13) [Peptide P2-59]
No binding | H2N-GDP-Dap-TWEVWGREELQ-GG-Par-G-CONH2 (H-GDP[Dap]TWEVWGREELQGG[Pra]G-NH2; lactam 4-13) [Peptide P2-63]

Molecule | Result
CC(=O)N[C@@H](CC(=O)O)C(=O)N1CCC[C@H]1C(=O)N[C@@H]1C(=O)N[C@@H]([C@@H](C)O)C(=O)N[C@@H](Cc2c[nH]c3ccccc23)C(=O)N[C@@H](CCC(=O)O)C(=O)N[C@@H](C(C)C)C(=O)N[C@@H](Cc2c[nH]c3ccccc23)C(=O)NCC(=O)N[C@@H](CCCNC(=N)N)C(=O)N[C@@H](CCC(=O)O)C(=O)N[C@H](C(=O)N[C@@H](CC(C)C)C(=O)N[C@@H](CCC(N)=O)C(=O)NCC(=O)NCC(=O)N[C@@H](CCCCNC(=O)CCOCCOCCOCCOCCOCCNC(=O)CCC(=O)N2Cc3ccccc3C#Cc3ccccc32)C(N)=O)C(C)(C)SSC1(C)C [Peptide P2-55] | 1.18
